Experimental data reported in patent US20140274883A1, “NOVEL ANTIVIRAL COMPOUNDS FROM MARINE EXTRACTS” (priority 2008, published 2014).

Test system: influenza A/Wyoming/03/2003 (H3N2)
Experiment: Plaque reduction assay in MDCK cell monolayers
Assay type: cell-based, influenza virus
Details: 5 μg/mL drug control, 72 h

In the case of `NC(=O)c1ncn([C@@H]2O[C@H](CO)[C@@H](O)[C@H]2O)n1` [Ribavirin, ribavirin], the plaque formation is reported as “completely inhibits the formation of plaques”.
